# Assay: Example 12: biodegradability, 302 Revised Zahn-Wellens test (OECD Chemical Test Guideline)
smiles,measurement,value
CN(CCN(C)[C@@H](CCC(=O)O)C(=O)O)[C@@H](CCC(=O)O)C(=O)O [Compound 45],biodegradable,70%
CN(CCN(C)[C@@H](CC(=O)O)C(=O)O)[C@@H](CC(=O)O)C(=O)O [Compound 32],biodegradable,70%
"O=C(O)CN(CCN(CC(=O)O)CC(=O)O)CC(=O)O [Ethylenediaminetetraacetic acid, reference compound]",biodegradability (in words),scarcely biodegradable

# Reference: patent publication US6340560B1, “Aminopolycarboxylic acid chelating agent, heavy metal chelate compound thereof, photographic additive and processing method” (Fuji Photo Film Co., Ltd., priority 1996, dated 2002)
